Biological target: fructosyl amino acid oxidase from Phaeosphaeria nodorum (PnFPOX, SEQ ID NO: 1) variant N56A (Parastagonospora nodorum, UniProt Q0UIL6, N56A)
Assay: Oxidase activity kinetics (4AA/TODB/POD), PnFPOX N56A mutant
Assay type: biochemical
Details: purified enzyme, 25° C., pH 7.0
Excerpt: As used herein “oxidase activity” is an enzymatic activity (Vmax) of the fructosyl amino acid oxidase to catalyze oxidation of fructosyl amino acid to generate 2-keto-D-glucose and the corresponding amino acid while utilizing oxygen as an electron acceptor. The oxidase activity may be assayed by measuring the amount of generated H2O2 by any methods known in the art, including by way of non-limiting example, reagents for H2O2 detection such as […] (4-aminoantipyrine/N,N-Bis(4-sulfobutyl)-3-methylaniline disodium salt/horseradish peroxidase) or by Pt electrode. As used herein in the context of the relative or quantitative activity, the oxidase activity is specifically defined to be the mole amount of the substrate (fructosyl amino acid) oxidized per unit time measured by the amount of generated H2O2 at 25° C. in 10 mM PPB, pH 7.0, 1.5 mM TODB, 2 U/ml horseradish peroxidase (POD), and 1.5 mM 4-aminoantipyrine (4AA). The formation of quinoneimine dye may be measured spectrophotometrically at 546 nm.
Escherichia coli BL21 (DE3) cells harboring expression vectors of N1-1 FAOD (SEQ ID NO: 2) mutants were grown in 150 ml of LB medium containing 50 μg/ml kanamycin at 37° C. After reaching an A660 value of 0.6, 0.3 mM IPTG was added and incubated at 25° C. for an additional 5 hours. The cells were collected by centrifugation and washed twice with 0.85% NaCl.aq. Then, the cells were resuspended in 10 mM Potassium Phosphate Buffer (PPB) pH 7.0 and lysed by ultrasonic homogenizer. The lysate was centrifuged at 10,000×g, 4° C. for 10 min, and the supernatant was centrifuged at 50,000 rpm, 4° C. for 60 min, then the supernatant was dialyzed against 10 mM PPB (pH 7.0). The oxidase activity was assayed at 25° C. in 10 mM PPB, pH 7.0, 1.5 mM TODB, 2 U/ml horseradish peroxidase (POD), and 1.5 mM 4-aminoantipyrine (4AA) in the presence of substrates (0.2, 0.5, 0.75, 1, 2, 5 mM f-^αVal […]). The formation of quinoneimine dye was measured spectrophotometrically at 546 nm. The dehydrogenase activity was assayed at 25° C. in 10 mM PPB (pH 7.0), 0.6 mM DCIP, and 6 mM methoxy PMS (mPMS) in the presence of substrates (0.2, 0.5, 1, 2, 5 mM f-^αVal or 5 mM f-^αVal-His).
Mutations were introduced using site-directed mutagenesis as in Example 1, and BL21 (DE3) cells were transformed with an expression vector containing wild-type or mutant PnFPOX (SEQ ID NO: 1). The cultured cells were resuspended in 10 mM PPB, pH 7.0, and lysed by sonication. The lysate was centrifuged at 10,000 g at 4° C. for 20 min, and the supernatant was centrifuged at 50,000 rpm at 4° C. for 60 min. The oxidase and dehydrogenase activities were measured as in Example 1.
BL21 (DE3) transformed with pEPN (pET28a-PnFPOX)-N56A was grown aerobically at 37° C. in LB medium (2 l) containing 50 μg kanamycin ml^−1. […]

Chain of fructosyl amino acid oxidase from Phaeosphaeria nodorum (PnFPOX, SEQ ID NO: 1) variant N56A (Q0UIL6 whole entry N56A): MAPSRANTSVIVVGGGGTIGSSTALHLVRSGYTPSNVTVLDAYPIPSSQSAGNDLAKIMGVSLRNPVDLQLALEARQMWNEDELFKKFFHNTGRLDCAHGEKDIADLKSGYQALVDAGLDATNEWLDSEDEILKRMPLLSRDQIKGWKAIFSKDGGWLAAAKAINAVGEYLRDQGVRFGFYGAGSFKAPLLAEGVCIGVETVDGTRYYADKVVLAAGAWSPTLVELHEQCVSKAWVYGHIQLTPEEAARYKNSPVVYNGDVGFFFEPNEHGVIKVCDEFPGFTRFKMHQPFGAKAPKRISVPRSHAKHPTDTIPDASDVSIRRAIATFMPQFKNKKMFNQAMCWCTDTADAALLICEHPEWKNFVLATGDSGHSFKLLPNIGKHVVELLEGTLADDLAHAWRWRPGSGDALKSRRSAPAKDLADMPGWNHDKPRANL

## CC(C)[C@H](NCC1(O)OC[C@@H](O)[C@@H](O)[C@@H]1O)C(=O)O (stereo partly shown) [f-αVal, fructosyl valine]
  Vmax: 4.39 U/mg

— US8497083B2, “Fructosyl amino acid oxidase” (priority 2009, dated 2013)
